PMC6010128, “Structure–activity relationship investigation of tertiary amine derivatives of cinnamic acid as acetylcholinesterase and butyrylcholinesterase inhibitors: compared with that of phenylpropionic acid, sorbic acid and hexanoic acid” (Journal of Enzyme Inhibition and Medicinal Chemistry, 2018)

Legend:
AChE = AChE (Rattus norvegicus, UniProt P37136); test: biochemical; settings: for Selectivity for AChE: IC50 (BChE)/IC50 (AChE); for IC50: rat brain AChE, Mean ± SD, triplicate
BChE = BChE (Rattus norvegicus, UniProt Q9JKC1); test: biochemical; design: species or system Sprague–Dawley rat; settings: rat serum BChE, Mean ± SD, triplicate
BChE, sequence (Q9JKC1 24-597): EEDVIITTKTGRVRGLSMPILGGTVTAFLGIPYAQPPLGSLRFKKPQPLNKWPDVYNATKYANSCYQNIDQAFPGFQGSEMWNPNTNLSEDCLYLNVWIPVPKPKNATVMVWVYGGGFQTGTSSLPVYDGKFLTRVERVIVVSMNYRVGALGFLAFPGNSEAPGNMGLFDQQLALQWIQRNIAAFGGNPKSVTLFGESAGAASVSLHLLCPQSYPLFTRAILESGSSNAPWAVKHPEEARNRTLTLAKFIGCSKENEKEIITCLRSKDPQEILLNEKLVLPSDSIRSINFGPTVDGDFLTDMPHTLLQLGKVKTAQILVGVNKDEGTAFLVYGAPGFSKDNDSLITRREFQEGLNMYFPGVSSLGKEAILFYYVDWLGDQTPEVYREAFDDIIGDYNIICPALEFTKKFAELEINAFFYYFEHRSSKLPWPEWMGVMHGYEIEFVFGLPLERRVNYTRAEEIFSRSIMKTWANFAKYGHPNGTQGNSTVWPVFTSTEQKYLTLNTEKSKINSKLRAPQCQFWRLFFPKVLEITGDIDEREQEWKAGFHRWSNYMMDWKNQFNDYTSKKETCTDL

[1] = Log P by shake flask method; type: physicochemical; settings: octanol / PBS pH = 7.4, shake flask
Method: Log P is defined as the logarithm of octanol–water partition coefficient. […] Ultraviolet spectrophotometry was applied to determine the concentration of compounds. Log p values were calculated based on the data in triplicate.

[2] = pKa by pH-titration method; type: physicochemical; settings: read-out: pKa
Method: pKa is determined by pH-titration method according to the report. The titration curve E vs. VT was recorded and pKa value was calculated.

AChE, sequence (P37136 32-614): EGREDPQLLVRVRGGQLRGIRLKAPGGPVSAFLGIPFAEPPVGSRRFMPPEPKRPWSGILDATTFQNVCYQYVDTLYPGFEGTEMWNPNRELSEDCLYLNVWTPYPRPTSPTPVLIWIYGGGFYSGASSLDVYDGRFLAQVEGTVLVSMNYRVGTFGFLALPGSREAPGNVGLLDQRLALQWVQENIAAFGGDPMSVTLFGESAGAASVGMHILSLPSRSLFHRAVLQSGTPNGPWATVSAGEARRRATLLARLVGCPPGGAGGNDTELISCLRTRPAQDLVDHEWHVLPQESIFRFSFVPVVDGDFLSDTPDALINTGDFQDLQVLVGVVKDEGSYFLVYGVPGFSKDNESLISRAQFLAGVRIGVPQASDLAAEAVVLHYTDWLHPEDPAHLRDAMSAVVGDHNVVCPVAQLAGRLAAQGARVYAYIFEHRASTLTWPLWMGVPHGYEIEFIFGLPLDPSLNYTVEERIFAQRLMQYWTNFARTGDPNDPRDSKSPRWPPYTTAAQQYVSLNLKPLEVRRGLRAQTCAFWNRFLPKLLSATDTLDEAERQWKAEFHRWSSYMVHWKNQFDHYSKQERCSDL

SMILES | Selectivity for AChE (AChE) | IC50 (AChE) [µM] | IC50 (BChE) [µM] | logP [1] | pKa [2]
CN(C)CCOc1ccccc1NC(=O)C=Cc1ccccc1 [Compound 4d] | 0.07 | 161 ± 2.19 | 11.2 ± 0.34 | 2.78 | 6.96
CCN(CC)CCOc1ccccc1NC(=O)C=Cc1ccccc1 [Compound 4e] | 0.04 | 197 ± 6.81 | 6.99 ± 0.29 | 2.81 | 7.28
O=C(C=Cc1ccccc1)Nc1ccccc1OCCN1CCCCC1 [Compound 4f] | 0.01 | 141 ± 7.01 | 1.16 ± 0.22 | 2.17 | 6.85
O=C(C=Cc1ccccc1)Nc1ccccc1OCCN1CCCC1 [Compound 4g] | 0.01 | 170 ± 8.49 | 1.56 ± 0.42 | 2.19 | 7.33
CN(C)CCOc1cccc(NC(=O)C=Cc2ccccc2)c1 [Compound 5d] | 1.30 | 20.5 ± 3.13 | 26.5 ± 0.56 | 0.96 | 6.51
CCN(CC)CCOc1cccc(NC(=O)C=Cc2ccccc2)c1 [Compound 5e] | 0.86 | 49.4 ± 1.91 | 42.5 ± 0.67 | 2.56 | 7.16
O=C(C=Cc1ccccc1)Nc1cccc(OCCN2CCCCC2)c1 [Compound 5f] | 0.16 | 20.5 ± 1.01 | 3.26 ± 0.26 | 1.24 | 6.99
O=C(C=Cc1ccccc1)Nc1cccc(OCCN2CCCC2)c1 [Compound 5g] | 1.51 | 8.52 ± 1.23 | 12.9 ± 1.18 | 2.28 | 7.28
CN(C)CCOc1ccc(NC(=O)C=Cc2ccccc2)cc1 [Compound 6d] | 22.8 | 4.98 ± 0.31 | 113 ± 1.36 | 1.54 | 7.18
CCN(CC)CCOc1ccc(NC(=O)C=Cc2ccccc2)cc1 [Compound 6e] | 4.16 | 10.6 ± 0.43 | 44 ± 3.29 | 1.22 | 6.97
O=C(C=Cc1ccccc1)Nc1ccc(OCCN2CCCCC2)cc1 [Compound 6f] | – | 4.35 ± 0.36 | 94.5 ± 8.74 | 1.4 | 7.29
CN(C)CCOc1ccccc1NC(=O)CCc1ccccc1 [Compound 10d] | 0.13 | 285 ± 4.69 | 36.6 ± 1.38 | 2.14 | 7.19
CCN(CC)CCOc1ccccc1NC(=O)CCc1ccccc1 [Compound 10e] | – | > 500 | 40.1 ± 1.29 | 3.22 | 7.23
O=C(CCc1ccccc1)Nc1ccccc1OCCN1CCCCC1 [Compound 10f] | 0.002 | 250 ± 8.21 | 0.59 ± 0.09 | 1.18 | 7.02
O=C(CCc1ccccc1)Nc1ccccc1OCCN1CCCC1 [Compound 10g] | 0.01 | 209 ± 2.33 | 1.87 ± 0.16 | 1.3 | 6.88
CN(C)CCOc1cccc(NC(=O)CCc2ccccc2)c1 [Compound 11d] | 0.26 | 59.2 ± 3.34 | 15.5 ± 1.21 | 1.19 | 6.45
CCN(CC)CCOc1cccc(NC(=O)CCc2ccccc2)c1 [Compound 11e] | 0.08 | 102 ± 3.36 | 8.23 ± 0.59 | 2.23 | 6.51
O=C(CCc1ccccc1)Nc1cccc(OCCN2CCCCC2)c1 [Compound 11f] | 0.93 | 69 ± 2.64 | 64 ± 1.92 | 3.22 | 6.78
O=C(CCc1ccccc1)Nc1cccc(OCCN2CCCC2)c1 [Compound 11g] | 1.43 | 58.6 ± 3.85 | 84 ± 2.12 | 2.58 | 6.45
CN(C)CCOc1ccc(NC(=O)CCc2ccccc2)cc1 [Compound 12d] | 2.82 | 46.8 ± 1.29 | 132 ± 5.21 | 2.44 | 7.26
CCN(CC)CCOc1ccc(NC(=O)CCc2ccccc2)cc1 [Compound 12e] | 2.50 | 84.6 ± 6.1 | 212 ± 4.87 | 2.58 | 6.52
O=C(CCc1ccccc1)Nc1ccc(OCCN2CCCCC2)cc1 [Compound 12f] | 6.60 | 34.3 ± 0.89 | 226 ± 5.78 | 1.82 | 7.13
O=C(CCc1ccccc1)Nc1ccc(OCCN2CCCC2)cc1 [Compound 12g] | – | 24.4 ± 0.76 | 98.5 ± 1.09 | 2.26 | 6.8
C/C=C/C=C/C(=O)Nc1ccccc1OCCN(C)C [Compound 16d] | 1.11 | 30.7 ± 2.34 | 34.1 ± 1.85 | 0.63 | 7.25
